Assay results: publication PMC7822874, “Chemoprotective antimalarials identified through quantitative high-throughput screening of Plasmodium blood and liver stage parasites” (Scientific Reports, 2021)
Where two headings read alike, the source gives them in different places.

How the values were obtained:
[1] = test system: P. berghei-ANKA-GFP-LucCON liver stage parasites in HepG2-A16-CD81EGFP cells; assay: P. berghei liver stage Pb-Luc assay, Method 1 (UCSD, 1536-well); format: cell-based, Plasmodium berghei; details: Plasmodium berghei, 48 h
[2] = test system: Plasmodium falciparum Dd2 asexual blood stage parasites; assay: microbe, parasite or virus in culture; parameters: species or system Plasmodium falciparum Dd2 in human erythrocytes; single determination (one 11-point concentration-response curve); details: Plasmodium falciparum, DD2, Erythrocyte, 72 h; read-out: AC50
HepG2-A16-CD81EGFP cells = details: for HepG2 1uM growth rep1 / HepG2 1uM growth rep2: HepG2, 1 µM compound treatment (10 mM stocks); for HepG2 1uM growth rep1 / HepG2 3uM growth rep1: replicate 1, normalized; for HepG2 1uM growth rep2 / HepG2 3uM growth rep2: replicate 2, normalized; for HepG2 3uM growth rep1 / HepG2 3uM growth rep2: HepG2, 3 µM compound treatment (10 mM stocks)
in vitro = details: human, HepG2-A16-CD81EGFP cells, uninfected
[3] = P. berghei liver stage, 1 µM compound treatment (10 mM stocks), replicate 1, normalized, average of 2 wells on a 1536 well plate, read-out: PbLuc 1uM growth rep1
[4] = P. berghei liver stage, 1 µM compound treatment (10 mM stocks), replicate 2, normalized, average of 2 wells on a 1536 well plate, read-out: PbLuc 1uM growth rep2
[5] = P. berghei liver stage, 3 µM compound treatment (10 mM stocks), replicate 1, normalized, average of 2 wells on a 1536 well plate, read-out: PbLuc 3uM growth rep1
[6] = P. berghei liver stage, 3 µM compound treatment (10 mM stocks), replicate 2, normalized, average of 2 wells on a 1536 well plate, read-out: PbLuc 3uM growth rep2

Row | Compound | activity at 1 µM [1, 3] [%] | activity at 1 µM [1, 4] [%] | activity at 3 µM [1, 5] [%] | activity at 3 µM [1, 6] [%] | AC50 [2] [nM] | HepG2 1uM growth rep1 (HepG2-A16-CD81EGFP cells; average of 2 wells) [%] | HepG2 1uM growth rep2 (HepG2-A16-CD81EGFP cells; average of 2 wells) [%] | HepG2 3uM growth rep1 (HepG2-A16-CD81EGFP cells; average of 2 wells) [%] | HepG2 3uM growth rep2 (HepG2-A16-CD81EGFP cells; average of 2 wells) [%] | also measured
1 | COc1ccc([C@@]2(C(C)C)ON(c3ccccc3C(F)(F)F)C2=O)cc1 [MLS002206606-01] | 98 | 100 | 88 | 122 | 4220 | 102 | 93 | 83 | 85 | –
2 | COc1ccc(OC)c(-n2c(S)nnc2-c2cccc(O)c2)c1 [MLS000089016-01] | 141 | 98 | 86 | 109 | 4220 | 97 | 93 | 90 | 96 | –
3 | CCN(c1ccccc1)[S+](=O)([O-])c1ccc(NC(=O)c2cc(=O)c3cc(C)ccc3o2)cc1 [NCGC00115963-01] | – | – | – | – | – | – | – | – | – | HepG2 viability, fourth HepG2 column (HepG2-A16-CD81EGFP cells): 95.01%; HepG2 viability, second HepG2 column (HepG2-A16-CD81EGFP cells): 97.84%; HepG2 viability, third HepG2 column (HepG2-A16-CD81EGFP cells): 94.20%; viability at 48 h (in vitro): 97.5%
4 | Cc1cc(C)c(C)c(S(=O)(=O)NCc2ccc(C(=O)N3CCCCC3)cc2)c1C [MLS000547926-01] | 124 | 129 | 104 | 108 | 3760 | 93 | 95 | 87 | 94 | –
5 | Cc1ccc(C)c2sc(N3CCN(C(=O)c4ccc([N+](=O)[O-])o4)CC3)nc12 [MLS001234268-01] | 97 | 91 | 57 | 53 | 4730 | 104 | 96 | 90 | 99 | –
6 | COc1ccc(NC(=O)C(c2ccc(Cl)cc2)C(C)C)cn1 (stereo not drawn) [MLS001149289-01] | 131 | 130 | 155 | 159 | 1880 | 104 | 98 | 90 | 87 | –
7 | Cc1noc(C)c1CSc1nc2sc3c(c2c(=O)n1C)CCCC3 [MLS000564913-01] | 120 | 107 | 61 | 89 | 8410 | 92 | 88 | 88 | 92 | –
8 | CCOC(=O)c1sc2nc3c(SCCC#N)cc(C(=O)c4cc(F)ccc4O)cn3c(=O)c2c1C [MLS000393119-01] | 107 | 121 | 76 | 92 | 1680 | 91 | 92 | 89 | 93 | –
9 | COc1ccc(C2Sc3ccccc3N=C3C2=C(O)c2ccccc23)c(OC)c1OC (stereo not drawn) [NCGC00108825-01] | – | – | – | – | 750 | – | – | – | – | activity at 1 µM ([1]; nominal 1 uM (10 mM stock), […] for 15 mM, 1.2 uM for 12 mM, 2 uM for 20 mM stock, average of 2 wells, 1536-well plate, repeat 1, read-out: Pb-Luc signal, 1 uM, repeat 1): 80.6%; activity at 1 µM ([1]; nominal 1 uM (10 mM stock), […] for 15 mM, 1.2 uM for 12 mM, 2 uM for 20 mM stock, average of 2 wells, 1536-well plate, repeat 2, read-out: Pb-Luc signal, 1 uM, repeat 2): 95.6%; activity at 1 µM ([1]; nominal 1 uM (10 mM stock), […] for 15 mM, 1.2 uM for 12 mM, 2 uM for 20 mM stock, average of 2 wells, 1536-well plate, repeat 3, read-out: Pb-Luc signal, 1 uM, repeat 3): 53.5%; activity at 3 µM ([1]; nominal 3 uM (10 mM stock), 4.5 uM for 15 mM, 3.6 uM for 12 mM, 6 uM for 20 mM stock, average of 2 wells, 1536-well plate, repeat 1, read-out: Pb-Luc signal, 3 uM, repeat 1): 34.1%; activity at 3 µM ([1]; nominal 3 uM (10 mM stock), 4.5 uM for 15 mM, 3.6 uM for 12 mM, 6 uM for 20 mM stock, average of 2 wells, 1536-well plate, repeat 2, read-out: Pb-Luc signal, 3 uM, repeat 2): 70.7%; activity at 3 µM ([1]; nominal 3 uM (10 mM stock), 4.5 uM for 15 mM, 3.6 uM for 12 mM, 6 uM for 20 mM stock, average of 2 wells, 1536-well plate, repeat 3, read-out: Pb-Luc signal, 3 uM, repeat 3): 74.5%; HepG2 viability signal, 1 uM, repeat 1 (HepG2-A16-CD81EGFP cells; nominal 1 uM (10 mM stock), […] for 15 mM, 1.2 uM for 12 mM, 2 uM for 20 mM stock, average of 2 wells, repeat 1): 40.50%; HepG2 viability signal, 1 uM, repeat 2 (HepG2-A16-CD81EGFP cells; nominal 1 uM (10 mM stock), […] for 15 mM, 1.2 uM for 12 mM, 2 uM for 20 mM stock, average of 2 wells, repeat 2): 77.27%; HepG2 viability signal, 3 uM, repeat 1 (HepG2-A16-CD81EGFP cells; nominal 3 uM (10 mM stock), 4.5 uM for 15 mM, 3.6 uM for 12 mM, 6 uM for 20 mM stock, average of 2 wells, repeat 1): 21.41%; HepG2 viability signal, 3 uM, repeat 2 (HepG2-A16-CD81EGFP cells; nominal 3 uM (10 mM stock), 4.5 uM for 15 mM, 3.6 uM for 12 mM, 6 uM for 20 mM stock, average of 2 wells, repeat 2): 66.08%
10 | COc1cc(O)c(C(CCN2CCCCC2)c2ccc(N(C)C)cc2)c(OC)c1 (stereo not drawn) [MLS000879496-01] | 126 | 95 | 91 | 95 | 2660 | 108 | 100 | 87 | 98 | –
11 | O=C(CCl)Nc1ccc(Oc2cnc3ccccc3n2)cc1 [MLS000327546-01] | 99 | 119 | 104 | 138 | 3350 | 90 | 86 | 92 | 90 | –
12 | CCOC(=O)C1CCN(Cc2cc(Cl)c3ccccc3c2O)CC1 [MLS001171913-01] | 100 | 93 | 91 | 110 | 1880 | 88 | 93 | 88 | 86 | –
13 | Nc1nonc1-n1nnc(C(=O)N/N=C/c2ccc(Br)cc2)c1-c1ccc2c(c1)OCO2 [MLS001142619-01] | 115 | 112 | 108 | 122 | 422 | 91 | 88 | 86 | 93 | –
14 | COc1cccc(C2C3=C(N=c4sc(=Cc5ccccc5O)c(=O)n42)c2ccccc2CC3)c1OC (stereo not drawn) [MLS000580951-01] | 115 | 99 | 96 | 91 | 2990 | 91 | 93 | 90 | 96 | –
